By pIC50 is commonly meant the IC50 on a negative log10 scale, so that one unit is a factor of ten.

pIC50: −log10 of the molar value.

This assay concerns the target T1, Full-length USP19 (Homo sapiens, UniProt O94966).
T1 construct: Full-length USP19 was purchased from Boston Biochem (E-576); purchased Boston Biochem E-576
T1 sequence (O94966 1-1318): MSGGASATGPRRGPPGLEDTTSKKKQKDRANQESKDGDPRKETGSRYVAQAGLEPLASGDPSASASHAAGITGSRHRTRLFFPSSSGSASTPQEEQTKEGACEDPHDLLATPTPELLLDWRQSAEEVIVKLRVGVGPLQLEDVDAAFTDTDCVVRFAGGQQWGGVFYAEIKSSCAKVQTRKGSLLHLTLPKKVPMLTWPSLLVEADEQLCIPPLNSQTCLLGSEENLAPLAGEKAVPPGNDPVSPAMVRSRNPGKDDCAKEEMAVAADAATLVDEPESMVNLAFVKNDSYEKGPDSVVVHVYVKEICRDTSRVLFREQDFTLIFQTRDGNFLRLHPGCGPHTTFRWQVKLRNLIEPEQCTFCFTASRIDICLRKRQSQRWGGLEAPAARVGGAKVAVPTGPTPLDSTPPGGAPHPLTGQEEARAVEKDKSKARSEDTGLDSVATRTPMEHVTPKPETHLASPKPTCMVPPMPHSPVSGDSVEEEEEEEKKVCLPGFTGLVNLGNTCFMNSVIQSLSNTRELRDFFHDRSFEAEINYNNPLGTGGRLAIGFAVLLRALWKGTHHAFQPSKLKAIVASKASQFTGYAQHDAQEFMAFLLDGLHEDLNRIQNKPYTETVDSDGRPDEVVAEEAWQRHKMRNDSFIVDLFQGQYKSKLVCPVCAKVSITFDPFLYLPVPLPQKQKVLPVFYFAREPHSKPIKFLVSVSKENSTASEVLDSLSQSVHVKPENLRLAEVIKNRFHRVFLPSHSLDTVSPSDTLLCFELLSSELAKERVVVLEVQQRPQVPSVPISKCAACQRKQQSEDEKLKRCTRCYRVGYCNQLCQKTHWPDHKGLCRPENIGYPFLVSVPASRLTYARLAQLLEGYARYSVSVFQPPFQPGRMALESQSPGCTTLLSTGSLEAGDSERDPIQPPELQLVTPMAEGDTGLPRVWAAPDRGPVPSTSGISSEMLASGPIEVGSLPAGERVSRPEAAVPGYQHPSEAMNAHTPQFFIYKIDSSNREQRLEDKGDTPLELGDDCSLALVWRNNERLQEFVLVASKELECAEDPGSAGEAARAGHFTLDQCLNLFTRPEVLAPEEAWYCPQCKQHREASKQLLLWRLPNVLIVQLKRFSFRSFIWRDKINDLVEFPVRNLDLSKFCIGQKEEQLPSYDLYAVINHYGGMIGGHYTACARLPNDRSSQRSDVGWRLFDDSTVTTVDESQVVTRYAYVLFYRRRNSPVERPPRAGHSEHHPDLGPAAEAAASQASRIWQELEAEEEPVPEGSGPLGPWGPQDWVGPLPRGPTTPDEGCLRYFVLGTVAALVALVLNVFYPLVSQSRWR
The assay is described as follows: USP19 fluorescence polarisation (FP) assay, Ubiquitin-Lys-TAMRA substrate. The class given is biochemical. Conditions: average of at least two duplicate experiments. As to the method:
USP19 activity was determined in a fluorescence polarisation (FP) homogeneous assay using the isopeptide Ubiquitin-Lys-TAMRA substrate (either AUB-101, Almac Sciences Scotland Limited, or U-558, Boston Biochem, both of which gave identical results). Full-length USP19 was purchased from Boston Biochem (E-576). Unless otherwise stated, all other reagents were purchased from Sigma. Enzymatic reactions were conducted in black flat bottom polystyrene 384-well plates (Nunc) and 30 μL total volume. USP19 (2.5 nM, 10 μL) was incubated in assay buffer (50 mM HEPES (pH 7.4), 150 mM NaCl, 5 mM DTT, 0.05% BSA (w/v), 0.05% CHAPS) in the presence or absence of inhibitor (10 μL). Inhibitors were stored as 10 mM DMSO stocks in an inert environment (low humidity, dark, low oxygen, rt) using the StoragePod® system (Roylan Developments) and serial dilutions were prepared in buffer just prior to the assay (from 200 μM to 2 μM, 8-18 data point curve). Following incubation at RT for 30 min, the enzymatic reactions were initiated by dispensing the Ub substrate (500 nM, 10 μL). FP was measured every 15 min over a period of 90 min (within the linear range of the assay) using a Synergy 4 plate reader (BioTek) exciting at 530 nm and measuring the amount of parallel and perpendicular light at 575 nm. The FP signal was subsequently normalised to the no compound control. Data were plotted and fitted, and the concentrations resulting in 50% inhibition (IC50) were calculated using the non-linear regression curve fitting model using GraphPad (Prism). IC50 values for the inhibitors of the invention are compiled in Tables 1 and 3 and represent the average of at least two duplicate experiments.
For orientation: In fluorescence polarisation assays a small probe gives low polarisation when free and higher when bound to something large.
Turning to `CCN[C@@H]1CCN(C(=O)N2CCC(Cn3cnc(-c4ccccc4)cc3=O)CC2)[C@H](c2ccccc2)C1` [Example 75, 3-((1-((2S,4R)-4-(Ethylamino)-2-phenylpiperidine-1-carbonyl)piperidin-4-yl)methyl)-6-phenylpyrimidin-4(3H)-one], the pIC50 is 7.00 to 8.00.
As for `COCCN[C@@H]1CCN(C(=O)N2CC[C@@H](Cn3cnc(-c4ccccc4)cc3=O)C3(CCCC3)C2)[C@H](c2cccc(F)c2)C1` [Example 195, 3-(((R)-7-((2S,4R)-2-(3-Fluorophenyl)-4-((2-methoxyethyl)amino)piperidine-1-carbonyl)-7-azaspiro[4.5]decan-10-yl)methyl)-6-phenylpyrimidin-4(3H)-one], the figure is above 8.00; as for `CN[C@@H]1CCN(C(=O)N2CC[C@@H](Cn3cnc(-c4ccccc4OC)cc3=O)C3(CCCC3)C2)[C@H](c2ccc(F)cc2)C1` [Example 104, 3-(((R)-7-((2S,4R)-2-(4-Fluorophenyl)-4-(methylamino)piperidine-1-carbonyl)-7-azaspiro[4.5]decan-10-yl)methyl)-6-(2-methoxyphenyl)pyrimidin-4(3H)-one], above 8.00.
With `C[C@H](CC(F)(F)F)C(=O)N1CCC(N)(Cn2cnc(-c3ccccc3)cc2=O)C2(CCCC2)C1` (stereo partly drawn) [Example 49, 3-((10-Amino-7-((R)-4,4,4-trifluoro-2-methylbutanoyl)-7-azaspiro[4.5]decan-10-yl)methyl)-6-phenylpyrimidin-4(3H)-one], the pIC50 is 6.00 to 7.00.
The value for `O=C(N1CCC(Cn2ccc(-c3ccccc3)cc2=O)CC1)N1CCNC[C@H]1c1ccccc1` [Example 6, (R)-4-Phenyl-1-((1-(2-phenylpiperazine-1-carbonyl)piperidin-4-yl)methyl)pyridin-2(1H)-one] was 6.00 to 7.00.
As for `CN[C@@H]1CCN(C(=O)N2CC[C@@H](Cn3ccc(-c4ccccc4)cc3=O)C3(CCCC3)C2)[C@H](c2ccccc2)C1` [Example 48, 1-(((R)-7-((2S,4R)-4-(Methylamino)-2-phenylpiperidine-1-carbonyl)-7-azaspiro[4.5]decan-10-yl)methyl)-4-phenylpyridin-2(1H)-one], the figure is above 8.00.
As for `N[C@@H]1CCN(C(=O)N2CCC(Cn3cnc4c(cnn4C4CC4)c3=O)C3(CCCC3)C2)[C@H](c2ccccc2)C1` (stereo partly drawn) [Example 35, 5-((7-((2S,4R)-4-Amino-2-phenylpiperidine-1-carbonyl)-7-azaspiro[4.5]decan-10-yl)methyl)-1-cyclopropyl-1,5-dihydro-4H-pyrazolo[3,4-d] pyrimidin-4-one], the figure is above 8.00; as for `O=C(N1CCC(Cn2cnc(-c3ccccc3)cc2=O)C2(CCCC2)C1)N1CCC[C@H]1c1ccccc1` (stereo partly drawn) [Example 8, 6-Phenyl-3-((7-((S)-2-phenylpyrrolidine-1-carbonyl)-7-azaspiro[4.5]decan-10-yl)methyl)pyrimidin-4(3H)-one], 6.00 to 7.00; as for `N[C@@H]1CCN(C(=O)N2CC[C@H](Cn3ccc(-c4ccccc4)cc3=O)C3(CCCC3)C2)[C@H](c2ccccc2)C1` [Example 24, 1-(((S)-7-((2S,4R)-4-Amino-2-phenylpiperidine-1-carbonyl)-7-azaspiro[4.5]decan-10-yl)methyl)-4-phenylpyridin-2(1H)-one], 4.70 to 6.00.
For `N[C@@H]1CCN(C(=O)N2CC[C@@H](Cn3ccc(-c4ccccc4)cc3=O)C3(CCCC3)C2)[C@H](c2ccccc2)C1` [Example 23, 1-(((R)-7-((2S,4R)-4-Amino-2-phenylpiperidine-1-carbonyl)-7-azaspiro[4.5]decan-10-yl)methyl)-4-phenylpyridin-2(1H)-one], the pIC50 was above 8.00.
The value for `O=C(N[C@@H]1CCN(C(=O)N2CC[C@@H](Cn3cnc(-c4ccccc4)cc3=O)C3(CCCC3)C2)[C@H](c2cc(F)ccc2F)C1)C1CC1` [Example 164, N-((2S,4R)-2-(2,5-Difluorophenyl)-1-((R)-10-((6-oxo-4-phenylpyrimidin-1(6H)-yl)methyl)-7-azaspiro[4.5]decane-7-carbonyl)piperidin-4-yl)cyclopropanecarbox-amide] was above 8.00; that for `N[C@@H]1CC[C@@H](c2ccccc2)N(C(=O)N2CC[C@@H](Cn3cnc(-c4ccccc4)cc3=O)C3(CCCC3)C2)C1` (racemic) [Example 188, 3-(((R)-7-((2S,5R)-5-Amino-2-phenylpiperidine-1-carbonyl)-7-azaspiro[4.5]decan-10-yl)methyl)-6-phenylpyrimidin-4(3H)-one and 3-(((R)-7-((2R,5S)-5-amino-2-phenylpiperidine-1-carbonyl)-7-azaspiro[4.5]decan-10-yl)methyl)-6-phenylpyrimidin-4(3H)-one] was 7.00 to 8.00; that for `CN[C@@H]1CCN(C(=O)N2CC[C@@H](Cn3ccc(-c4ccccc4)cc3=O)C3(CCCC3)C2)[C@H](c2cc(F)cc(F)c2)C1` [Example 121, 1-(((R)-7-((2S,4R)-2-(3,5-Difluorophenyl)-4-(methylamino)piperidine-1-carbonyl)-7-azaspiro[4.5]decan-10-yl)methyl)-4-phenylpyridin-2(1H)-one] was above 8.00.
For the molecule `O=C(N[C@@H]1CCN(C(=O)N2CC[C@@H](Cn3cnc4ccc(F)cc4c3=O)C3(CCCC3)C2)[C@H](c2cc(F)ccc2F)C1)C1CC1` [Example 173, N-((2S,4R)-2-(2,5-Difluorophenyl)-1-((R)-10-((6-fluoro-4-oxoquinazolin-3(4H)-yl)methyl)-7-azaspiro[4.5]decane-7-carbonyl)piperidin-4-yl)cyclopropanecarboxamide], the negative logarithm of the IC50 (pIC50) was 7.00 to 8.00.
Turning to `Cn1ccc(N[C@@H]2CCN(C(=O)N3CC[C@@H](Cn4cnc(-c5ccccc5)cc4=O)C4(CCCC4)C3)[C@H](c3ccccc3)C2)n1` [Example 147, 3-(((R)-7-((2S,4R)-4-((1-Methyl-1H-pyrazol-3-yl)amino)-2-phenylpiperidine-1-carbonyl)-7-azaspiro[4.5]decan-10-yl)methyl)-6-phenylpyrimidin-4(3H)-one], the pIC50 was 6.00 to 7.00.
As to `CC(=O)N[C@@H]1CCN(C(=O)N2CC[C@@H](Cn3cnc(-c4ccccc4)cc3=O)C3(CCCC3)C2)[C@H](c2cc(F)ccc2F)C1` [Example 155, N-((2S,4R)-2-(2,5-Difluorophenyl)-1-((R)-10-((6-oxo-4-phenylpyrimidin-1(6H)-yl)methyl)-7-azaspiro[4.5]decane-7-carbonyl)piperidin-4-yl)acetamide], the pIC50 was above 8.00.
As for `O=C(N1CC[C@@H](Cn2ccc(Cl)cc2=O)C2(CCCC2)C1)N1CC[C@@H](NCC(F)F)C[C@H]1c1cc(F)ccc1F` [Example 185, 4-Chloro-1-(((R)-7-((2S,4R)-4-((2,2-difluoroethyl)amino)-2-(2,5-difluorophenyl)piperidine-1-carbonyl)-7-azaspiro[4.5]decan-10-yl)methyl)pyridin-2(1H)-one], the figure is 7.00 to 8.00; as for `CN[C@@H]1CCN(C(=O)N2CC[C@@H](CN3CCC(c4ccccc4)=CC3=O)C3(CCCC3)C2)[C@H](c2cc(F)ccc2F)C1` [Example 168, 1-(((R)-7-((2S,4R)-2-(2,5-Difluorophenyl)-4-(methylamino)piperidine-1-carbonyl)-7-azaspiro[4.5]decan-10-yl)methyl)-4-phenyl-5,6-dihydropyridin-2(1H)-one], above 8.00.
